# Experiments:
# THP-1 cells = assay: Trans-well chemotaxis assay of THP-1 cells; type: cell-based, human; conditions: Wortmannin 1 μmol/L, Rapamycin 1.1 μmol/L, GW5074 1 μmol/L
# Experimental: For chemo-attraction of monocytes, RANTES (100 ng/ml), MIP-1α (50 ng/ml) or MCP-1 (50 ng/ml) were dissolved in 0.5% fetal bovine serum(FBS)/RPMI-1640 medium and placed at the lower chamber of QCM™ 24-well migration assay plate (Corning-Costar; 5 μm pores). For chemo-attraction of CD4+ cells, 0.5% FBS/RPMI-1640 solution containing RANTES (100 ng/ml) and SDF-1α (50 ng/ml) was used, using the same plate setting. Migration assay was conducted by seeding 300,000 treated cells in the upper chamber, followed by incubation of 3-4 hours. Subsequently, the number of cells which migrated to the medium in the lower compartment was determined by FACS.
# Data are mean f SD from 4 experiments in triplicates, normalized to untreated cells. **, p<0.001.
# [1] = tested on: Human monocytes (CD14+ cells); assay: In vitro cell migration (trans-well chemotaxis) assay of human monocytes; type: cell-based; conditions: for reduction of monocyte chemotaxis towards MCP-1 and RANTES (50 ng/ml each): 30 min pre-incubation, PC 5 μg/ml, partially oxidized PAPC 40 μg/ml, PGPC 5 μg/ml, VB-201 5 μg/ml
# Experimental: Following incubation, cells were loaded to the upper chamber and allowed to migrate for 3.5 hours towards 0.5% fetal bovine serum/RPMI-1640 medium supplemented with recombinant human MCP-1 and RANTES (50 ng/ml each).
# In order to further ascertain the significance of ERK1/2 phosphorylation and MEK1/2 phosphorylation to monocyte chemotaxis, the effect of the RAF inhibitor GW5074, which reduces MEK and ERK phosphorylation, on monocyte chemotaxis was determined in a trans-well migration assay using a combination of MCP-1 ([…]) and RANTES (70 ng/ml) as attractant. Monocytes were pre-treated with 5 μM GW5074 for 30 minutes prior to seeding in the migration chamber.
# For this purpose, monocytes from healthy donors were pre-incubated for 30 min with either solvent (0.005% ethanol/PBS), phosphatidylcholine (PC; 5 μg/ml), partially oxidized PAPC (24 h oxidation; 40 μg/ml) or PGPC (5 μg/ml), and allowed to migrate towards recombinant human MCP-1 (CCL2; ligand for CCR2) and RANTES (CCL5; ligand for CCR1, CCR3, CCR5, US28) as attractants (50 ng/ml each). […]
# human monocytes = assay: ROS formation in human monocytes (DCF, FACS); type: cell-based; conditions: overnight; VB-201 10 μg/ml, PGPC 10 μg/ml, OxPAPC 100 μg/ml; relative to PBS
# Experimental: Detection of ROS was performed through FACS quantification of the oxidation product dichlorodihydrofluorescein (DCF). Data are mean±SD from 3-4 experiments performed in duplicates. FIG. 23B is a histogram from a representative experiment showing DCF levels in treated cells.
# TLR4 = molecular target: T1, TLR4 (Mus musculus, UniProt Q9QUK6); conditions: RAW 264.7 murine macrophages
# T1 sequence (Q9QUK6 26-835): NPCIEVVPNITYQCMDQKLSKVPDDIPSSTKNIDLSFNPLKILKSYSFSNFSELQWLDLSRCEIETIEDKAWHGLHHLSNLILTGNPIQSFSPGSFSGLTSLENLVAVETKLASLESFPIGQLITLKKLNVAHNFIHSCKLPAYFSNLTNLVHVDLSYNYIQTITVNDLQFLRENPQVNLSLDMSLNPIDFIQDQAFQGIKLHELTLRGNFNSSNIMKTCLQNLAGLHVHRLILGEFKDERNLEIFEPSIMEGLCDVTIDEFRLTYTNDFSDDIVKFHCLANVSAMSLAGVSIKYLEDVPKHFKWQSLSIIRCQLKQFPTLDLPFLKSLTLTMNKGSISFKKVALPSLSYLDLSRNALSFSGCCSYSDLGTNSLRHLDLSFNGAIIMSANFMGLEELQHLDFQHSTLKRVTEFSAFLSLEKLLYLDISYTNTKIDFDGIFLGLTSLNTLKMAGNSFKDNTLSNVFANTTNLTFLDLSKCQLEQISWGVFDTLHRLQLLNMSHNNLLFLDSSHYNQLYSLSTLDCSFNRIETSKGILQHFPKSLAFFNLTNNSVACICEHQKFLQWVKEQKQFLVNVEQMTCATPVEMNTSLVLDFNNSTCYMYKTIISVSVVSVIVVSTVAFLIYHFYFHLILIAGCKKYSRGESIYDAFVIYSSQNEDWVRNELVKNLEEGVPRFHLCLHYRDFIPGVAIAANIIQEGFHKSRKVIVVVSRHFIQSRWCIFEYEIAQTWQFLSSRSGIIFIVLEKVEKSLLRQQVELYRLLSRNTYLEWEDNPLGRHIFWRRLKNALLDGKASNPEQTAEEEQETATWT
# T1 sequence (Q9JHF9 19-160 partner): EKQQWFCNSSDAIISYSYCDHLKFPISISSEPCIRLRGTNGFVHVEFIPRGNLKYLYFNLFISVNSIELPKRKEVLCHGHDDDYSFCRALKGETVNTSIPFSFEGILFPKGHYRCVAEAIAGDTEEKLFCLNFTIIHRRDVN
# Experimental: Cells were washed and re-suspended in lysis buffer containing 1:100 dithiothreitol (DTT) (Bio-Lab), and phosphatase and protease inhibitors (Thermo Scientific). Samples were loaded on a precasted Criterion TGX gel (BIO-RAD, UK) and transferred onto nitrocellulose membrane. Blots were blocked with 5% milk or bovine serum albumin (BSA) in TBST (Tris buffer saline with TWEEN 20) for 1 hour, followed by incubation with primary and secondary antibodies. Membranes were developed using the ECL kit (Thermo Scientific).
# Toll-like receptors were activated in mouse BMDCs (bone marrow dendritic cells) by specific agonists, and the effect of receptor activation was determined via Western blot for phosphorylation of p38 MAP kinase, which is downstream of TLRs.
molecule,measurement,setting,value
"O=C1Nc2ccc(I)cc2C1=Cc1cc(Br)c(O)c(Br)c1 [GW5074, 3-(3,5-dibromo-4-hydroxy-benzylidene)-5-iodo-1,3-dihydro-indol-2-one, reference compound]",chemotaxis of THP-1 cells in vitro,THP-1 cells,decrease chemotaxis of THP-1 cells
same,reduction of monocyte migration,"[1]; 5 μM GW5074, 30 minutes, MCP-1 (50 ng/nl) and RANTES (70 ng/ml)",about 80%
"CCCCCCCCCCCCCCCC(=O)OCC(COP(=O)([O-])OCC[N+](C)(C)C)OC(=O)CCCC(=O)O (stereo not drawn) [PGPC, 1-palmitoyl-2-glutaryl-phosphatidylcholine, reference compound]",reduction of monocyte chemotaxis towards MCP-1 and RANTES (50 ng/ml each),[1],~50%
same,ROS formation in human monocytes,human monocytes,no effect on ROS formation
"CCCCCCCCOC[C@H](COP(=O)([O-])OCC[N+](C)(C)C)OCCCCC(=O)O [VB-207, (R)-1-octyl-2-(4′-carboxyl)butyl-sn-glycero-3-phosphocholine]",LPS-induced signaling,TLR4,neither VB-207 nor OB-VB207 exhibited such an inhibitory effect
"phosphatidylcholine [PC, reference compound]",reduction of monocyte chemotaxis towards MCP-1 and RANTES (50 ng/ml each),[1],did not reduce the number of migrating cells

# Reference: patent US20150320773A1, “TREATMENT OF INFLAMMATION” (Vascular Biogenics Ltd., priority 2011, published 2015)
